# Measured values as given in patent publication US10934296B2, “4-imidazopyridazin-1-yl-benzamides as Btk inhibitors” (Merck Sharp & Dohme B.V., priority 2011, dated 2021).
# Target: Btk enzyme (His-Btk) (Homo sapiens (Human), UniProt Q06187)
# Experiment: Btk enzyme activity, IMAP fluorescence polarization assay
# Conditions: 60 min pre-incubation, 5 μM ATP, bin bounds in nM
# Chain of Btk enzyme (His-Btk) (Q06187 whole entry): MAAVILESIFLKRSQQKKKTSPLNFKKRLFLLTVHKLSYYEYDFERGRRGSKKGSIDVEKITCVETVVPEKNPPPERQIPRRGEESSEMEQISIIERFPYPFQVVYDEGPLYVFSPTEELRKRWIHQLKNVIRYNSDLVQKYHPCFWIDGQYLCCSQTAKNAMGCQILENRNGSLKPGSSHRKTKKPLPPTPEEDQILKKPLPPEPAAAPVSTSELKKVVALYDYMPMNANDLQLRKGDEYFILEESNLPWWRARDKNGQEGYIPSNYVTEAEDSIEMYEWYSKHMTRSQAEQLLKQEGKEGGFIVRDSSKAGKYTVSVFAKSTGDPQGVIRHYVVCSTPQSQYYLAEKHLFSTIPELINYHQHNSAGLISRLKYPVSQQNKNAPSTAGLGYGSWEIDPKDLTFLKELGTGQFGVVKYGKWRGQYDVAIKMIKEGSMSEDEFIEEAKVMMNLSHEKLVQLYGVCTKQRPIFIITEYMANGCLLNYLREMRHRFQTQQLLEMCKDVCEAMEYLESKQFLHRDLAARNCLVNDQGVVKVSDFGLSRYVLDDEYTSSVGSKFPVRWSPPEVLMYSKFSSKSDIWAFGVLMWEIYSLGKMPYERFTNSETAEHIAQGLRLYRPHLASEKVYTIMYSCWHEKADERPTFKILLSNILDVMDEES
row,EC50 Btk activity values [nM],SMILES
1,<100,"Nc1nccn2c([C@@H]3CCCN3C(=O)/C=C/CN3CCCC3)nc(-c3ccc(C(=O)Nc4ccccn4)cc3)c12 [Example 2, (S,E)-4-(8-amino-3-(1-(4-(pyrrolidin-1-yl)but-2-enoyl)pyrrolidin-2-yl)imidazo[1,5-a]pyrazin-1-yl)-N-(pyridin-2-yl)benzamide]"
2,<100,"COC/C=C/C(=O)N1CCC[C@H]1c1nc(-c2ccc(C(=O)Nc3ccccn3)cc2)c2c(N)nccn12 [Example 4, (S,E)-4-(8-amino-3-(1-(4-methoxybut-2-enoyl)pyrrolidin-2-yl)imidazo[1,5-a]pyrazin-1-yl)-N-(pyridin-2-yl)benzamide]"
3,<100,"Nc1nccn2c([C@@H]3CCCN3C(=O)c3ccnc(Cl)n3)nc(-c3ccc(C(=O)Nc4ccccn4)cc3)c12 [Example 5, (S)-4-(8-amino-3-(1-(2-chloropyrimidine-4-carbonyl)pyrrolidin-2-yl)imidazo[1,5-a]pyrazin-1-yl)-N-(pyridin-2-yl)benzamide]"
4,<100,"CN(C)C/C=C/C(=O)N1CCC[C@H]1c1nc(-c2ccc(C(=O)Nc3cc(F)ccn3)cc2)c2c(N)nccn12 [Example 7, (S,E)-4-(8-Amino-3-(1-(4-(dimethylamino)but-2-enoyl)pyrrolidin-2-yl)imidazo[1,5-a]pyrazin-1-yl)-N-(4-fluoropyridin-2-yl)benzamide]"
5,<100,"CCc1ccnc(NC(=O)c2ccc(-c3nc([C@@H]4CCCN4C(=O)/C=C/COC)n4ccnc(N)c34)cc2)c1 [Example 11, (S,E)-4-(8-Amino-3-(1-(4-methoxybut-2-enoyl)pyrrolidin-2-yl)-imidazo[1,5-a]pyrazin-1-yl)-N-(4-ethylpyridin-2-yl)benzamide]"
6,<100,"CC#CC(=O)N1CCCC[C@H]1c1nc(-c2ccc(C(=O)Nc3ccon3)cc2)c2c(N)nccn12 [Example 24, (S)-4-(8-Amino-3-(1-but-2-ynoylpiperidin-2-yl)imidazo[1,5-a]pyrazin-1-yl)-N-(isoxazol-3-yl)benzamide]"
7,<100,"CN(C)CC#CC(=O)N1CCC[C@H]1c1nc(-c2ccc(C(=O)Nc3ccccn3)cc2)c2c(N)nccn12 [Example 40, (S)-4-(8-Amino-3-(1-(4-(dimethylamino)but-2-ynoyl)pyrrolidin-2-yl)imidazo[1,5-a]pyrazin-1-yl)-N-(pyridin-2-yl)benzamide]"
8,<100,"COCC#CC(=O)N1CCC[C@H]1c1nc(-c2ccc(C(=O)Nc3ccccn3)cc2)c2c(N)nccn12 [Example 41, (S)-4-(8-Amino-3-(1-(4-methoxybut-2-ynoyl)pyrrolidin-2-yl)imidazo[1,5-a]pyrazin-1-yl)-N-(pyridin-2-yl)benzamide]"
9,<100,"CC#CC(=O)N1CCC[C@H]1c1nc(-c2ccc(C(=O)Nc3ccccn3)c(F)c2)c2c(N)nccn12 [Example 50, (S)-4-(8-amino-3-(1-but-2-ynoylpyrrolidin-2-yl)imidazo[1,5-a]pyrazin-1-yl)-2-fluoro-N-(pyridin-2-yl)benzamide]"
10,<100,"COC/C=C/C(=O)N1CCC[C@H]1c1nc(-c2ccc(C(=O)Nc3cc(OC)ccn3)cc2)c2c(N)nccn12 [Example 51, (S,E)-4-(8-amino-3-(1-(4-methoxybut-2-enoyl)pyrrolidin-2-yl)imidazo[1,5-a]pyrazin-1-yl)-N-(4-methoxypyridin-2-yl)benzamide]"
11,<100,"Cc1cc(C(=O)Nc2ccccn2)ccc1-c1nc([C@@H]2CCCCN2C(=O)c2ccnc(Cl)n2)n2ccnc(N)c12 [Example 56, 4-(8-amino-3-((S)-1-(2-chloropyrimidine-4-carbonyl)piperidin-2-yl)imidazo[1,5-a]pyrazin-1-yl)-3-methyl-N-(pyridin-2-yl)benzamide]"
12,<100,"COC/C=C/C(=O)N1CCC[C@H]1c1nc(-c2ccc(C(=O)Nc3cc(C)ccn3)cc2)c2c(N)nccn12 [Example 57, (S,E)-4-(8-amino-3-(1-(4-methoxybut-2-enoyl)pyrrolidin-2-yl)imidazo[1,5-a]pyrazin-1-yl)-N-(4-methylpyridin-2-yl)benzamide]"
13,<100,"COC/C=C/C(=O)N1CCC[C@H]1c1nc(-c2ccc(C(=O)Nc3cc(C(C)C)ccn3)cc2)c2c(N)nccn12 [Example 58, (S,E)-4-(8-amino-3-(1-(4-methoxybut-2-enoyl)pyrrolidin-2-yl)imidazo[1,5-a]pyrazin-1-yl)-N-(4-isopropylpyridin-2-yl)benzamide]"
14,<100,"Cc1ccnc(NC(=O)c2ccc(-c3nc([C@@H]4CCCN4C(=O)/C=C/CN(C)C)n4ccnc(N)c34)cc2)c1 [Example 59, (S,E)-4-(8-amino-3-(1-(4-(dimethylamino)but-2-enoyl)pyrrolidin-2-yl)imidazo[1,5-a]pyrazin-1-yl)-N-(4-methylpyridin-2-yl)benzamide]"
15,<100,"CN(C)C/C=C/C(=O)NCc1nc(-c2ccc(C(=O)Nc3ccccn3)cc2)c2c(N)nccn12 [Example 69, (E)-4-(8-amino-3-((4-(dimethylamino)but-2-enamido)methyl)imidazo[1,5-a]pyrazin-1-yl)-N-(pyridin-2-yl)benzamide]"
16,<100,"CC(C)c1ccnc(NC(=O)c2ccc(-c3nc([C@@H]4CCCN4C(=O)c4ccnc(Cl)n4)n4ccnc(N)c34)cc2)c1 [Example 70, (S)-4-(8-amino-3-(1-(2-chloropyrimidine-4-carbonyl)pyrrolidin-2-yl)imidazo[1,5-a]pyrazin-1-yl)-N-(4-isopropylpyridin-2-yl)benzamide]"
17,<100,"Nc1nccn2c([C@@H]3CCCN3C(=O)c3ccnc(Cl)n3)nc(-c3ccc(C(=O)Nc4nc5c(s4)CCCC5)cc3)c12 [Example 71, (S)-4-(8-amino-3-(1-(2-chloropyrimidine-4-carbonyl)pyrrolidin-2-yl)imidazo[1,5-a]pyrazin-1-yl)-N-(4,5,6,7-tetrahydrobenzo[d]thiazol-2-yl)benzamide]"
18,<100,"CN(C)C/C=C/C(=O)N1CCCC[C@H]1c1nc(-c2ccc(C(=O)Nc3cccnn3)cc2)c2c(N)nccn12 [Example 73, (S,E)-4-(8-amino-3-(1-(4-(dimethylamino)but-2-enoyl)piperidin-2-yl)imidazo[1,5-a]pyrazin-1-yl)-N-(pyridazin-3-yl)benzamide]"
19,<100,"Nc1nccn2c([C@@H]3CCCCN3C(=O)c3ccnc(Cl)n3)nc(-c3ccc(C(=O)Nc4cc(F)ccn4)cc3)c12 [Example 80, (S)-4-(8-amino-3-(1-(2-chloropyrimidine-4-carbonyl)piperidin-2-yl)imidazo[1,5-a]pyrazin-1-yl)-N-(4-fluoropyridin-2-yl)benzamide]"
20,<100,"COC/C=C/C(=O)N1CCCC[C@H]1c1nc(-c2ccc(C(=O)Nc3cc(F)ccn3)cc2)c2c(N)nccn12 [Example 81, (S,E)-4-(8-amino-3-(1-(4-methoxybut-2-enoyl)piperidin-2-yl)imidazo[1,5-a]pyrazin-1-yl)-N-(4-fluoropyridin-2-yl)benzamide]"
21,<100,"COC/C=C/C(=O)N1CCC[C@H]1c1nc(-c2ccc(C(=O)Nc3nc4c(s3)CCCC4)cc2)c2c(N)nccn12 [Example 82, (S,E)-4-(8-amino-3-(1-(4-methoxybut-2-enoyl)pyrrolidin-2-yl)imidazo[1,5-a]pyrazin-1-yl)-N-(4,5,6,7-tetrahydrobenzo[d]thiazol-2-yl)benzamide]"
22,<100,"COc1cc(-c2nc([C@@H]3CCCN3C(=O)c3ccnc(Cl)n3)n3ccnc(N)c23)ccc1C(=O)Nc1ccccn1 [Example 83, (S)-4-(8-amino-3-(1-(2-chloropyrimidine-4-carbonyl)pyrrolidin-2-yl)imidazo[1,5-a]pyrazin-1-yl)-2-methoxy-N-(pyridin-2-yl)benzamide]"

# Same assay, conditions: 60 min pre-incubation, 5 μM ATP, bin bounds in μM
row,EC50 Btk activity values [nM],SMILES
1,<1000,COC/C=C/C(=O)N1CCC[C@H]1c1nc(-c2ccc(C(=O)Nc3ccccn3)c(F)c2)c2c(N)nccn12 [Example 52]
2,<1000,"COC/C=C/C(=O)N1CCC[C@H]1c1nc(-c2ccc(C(=O)Nc3cc(F)ccn3)cc2)c2c(N)nccn12 [Example 53, (S,E)-4-(8-amino-3-(1-(4-methoxybut-2-enoyl)pyrrolidin-2-yl)imidazo[1,5-a]pyrazin-1-yl)-N-(4-fluoropyridin-2-yl)benzamide]"
3,<1000,"COC/C=C/C(=O)N1CCCC[C@H]1c1nc(-c2ccc(C(=O)Nc3ccon3)cc2)c2c(N)nccn12 [Example 54, (S,E)-4-(8-amino-3-(1-(4-methoxybut-2-enoyl)piperidin-2-yl)imidazo[1,5-a]pyrazin-1-yl)-N-(isoxazol-3-yl)benzamide]"
4,<1000,"COC/C=C/C(=O)N1CCCC[C@H]1c1nc(-c2ccc(C(=O)Nc3ncccn3)cc2)c2c(N)nccn12 [Example 55, (S,E)-4-(8-amino-3-(1-(4-methoxybut-2-enoyl)piperidin-2-yl)imidazo[1,5-a]pyrazin-1-yl)-N-(pyrimidin-2-yl)benzamide]"
5,<1000,"C=CC(=O)N1CCCC[C@H]1c1nc(-c2ccc(C(=O)Nc3ccccn3)cc2C)c2c(N)nccn12 [Example 68, 4-(3-((S)-1-acryloylpiperidin-2-yl)-8-aminoimidazo[1,5-a]pyrazin-1-yl)-3-methyl-N-(pyridin-2-yl)benzamide]"
6,<1000,"COC/C=C/C(=O)N1CCCC[C@H]1c1nc(-c2ccc(C(=O)Nc3cccnn3)cc2)c2c(N)nccn12 [Example 72, (S,E)-4-(8-amino-3-(1-(4-methoxybut-2-enoyl)piperidin-2-yl)imidazo[1,5-a]pyrazin-1-yl)-N-(pyridazin-3-yl)benzamide]"
7,<1000,"Nc1nccn2c([C@@H]3CCCCN3C(=O)c3ccnc(Cl)n3)nc(-c3ccc(C(=O)Nc4cccnn4)cc3)c12 [Example 74, (S)-4-(8-amino-3-(1-(2-chloropyrimidine-4-carbonyl)piperidin-2-yl)imidazo[1,5-a]pyrazin-1-yl)-N-(pyridazin-3-yl)benzamide]"
